Experimental data: ChEMBL document CHEMBL4610114, “Fragment-Based Discovery of Pyrazolopyridones as JAK1 Inhibitors with Excellent Subtype Selectivity” (J Med Chem, 2020); call rule not given here
Converted amounts (≈) assume the structure as drawn.

Experiments:
[1] = molecular target: T1, Tyrosine-protein kinase JAK2 (Homo sapiens, UniProt O60674)
Description: Inhibition of JAK2 in human STAT5-irf1-bla TF1 cells assessed as reduction in EPO-induced STAT5-signalling pre-incubated for 1 hrs before EPO addition and further incubated for 4 hrs fluorescence based assay

physchem [2] = settings: PBS buffer, pH 7.4
Description: Aqueous solubility in PBS buffer at pH 7.4 by HPLC analysis

in vitro [3] = settings: human, liver microsomes
Description: Apparent intrinsic clearance in human liver microsomes

[4] = molecular target: T2, Tyrosine-protein kinase JAK1 (Homo sapiens, UniProt P23458)
[5] = molecular target: T3, Tyrosine-protein kinase JAK3 (Homo sapiens, UniProt P52333)
T3 sequence (P52333 whole entry): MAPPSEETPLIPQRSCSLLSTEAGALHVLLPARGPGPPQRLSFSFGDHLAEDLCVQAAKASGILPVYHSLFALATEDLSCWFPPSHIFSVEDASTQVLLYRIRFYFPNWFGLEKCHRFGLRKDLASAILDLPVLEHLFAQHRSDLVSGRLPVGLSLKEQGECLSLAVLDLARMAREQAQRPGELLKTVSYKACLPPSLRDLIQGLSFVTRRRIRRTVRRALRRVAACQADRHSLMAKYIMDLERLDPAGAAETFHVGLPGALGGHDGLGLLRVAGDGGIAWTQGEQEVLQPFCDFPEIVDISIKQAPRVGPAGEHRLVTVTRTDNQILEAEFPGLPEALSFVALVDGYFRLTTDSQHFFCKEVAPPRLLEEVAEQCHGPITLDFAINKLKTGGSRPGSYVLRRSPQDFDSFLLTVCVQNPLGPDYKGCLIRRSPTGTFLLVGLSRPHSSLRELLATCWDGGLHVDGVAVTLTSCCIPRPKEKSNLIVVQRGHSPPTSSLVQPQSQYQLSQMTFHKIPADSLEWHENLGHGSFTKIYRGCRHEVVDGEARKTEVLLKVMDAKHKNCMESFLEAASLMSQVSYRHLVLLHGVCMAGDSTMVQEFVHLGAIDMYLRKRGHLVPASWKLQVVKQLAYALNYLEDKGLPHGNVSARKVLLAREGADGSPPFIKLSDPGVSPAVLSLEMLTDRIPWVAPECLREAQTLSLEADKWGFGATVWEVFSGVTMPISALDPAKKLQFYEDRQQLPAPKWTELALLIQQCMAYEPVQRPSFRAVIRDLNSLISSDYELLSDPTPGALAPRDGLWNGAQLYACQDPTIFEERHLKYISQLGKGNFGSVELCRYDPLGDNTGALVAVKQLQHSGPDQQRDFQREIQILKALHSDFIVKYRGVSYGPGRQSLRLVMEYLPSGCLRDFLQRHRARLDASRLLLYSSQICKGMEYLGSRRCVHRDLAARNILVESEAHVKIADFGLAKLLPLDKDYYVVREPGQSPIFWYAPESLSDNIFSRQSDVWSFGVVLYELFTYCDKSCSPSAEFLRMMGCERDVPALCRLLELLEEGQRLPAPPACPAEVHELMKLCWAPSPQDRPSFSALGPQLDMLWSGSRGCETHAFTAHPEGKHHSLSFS

physchem [6] = settings: octanol/water
Description: Lipophilicity, logD of the compound by shake flask assay

[7] = molecular target: T1, Tyrosine-protein kinase JAK2; remark: listed apart in the source
[8] = molecular target: T2, Tyrosine-protein kinase JAK1; remark: listed apart in the source
Description: Inhibition of JAK1 in human STAT6-bla-RA1 cells assessed as reduction in IL4-induced STAT6-signalling pre-incubated for 1 hrs before human recombinant IL4 addition and further incubated for 4 hrs fluorescence based assay

[9] = Clearance in rat at […], po or 0.06 mg/kg, iv; type: ADME, organism-based; settings: in vivo
Cytochrome P450 1A2 = molecular target: T4, Cytochrome P450 1A2 (Homo sapiens, UniProt P05177); test: Inhibition of CYP1A2 (unknown origin) up to 25 uM; type: ADME
T4 sequence (P05177 whole entry): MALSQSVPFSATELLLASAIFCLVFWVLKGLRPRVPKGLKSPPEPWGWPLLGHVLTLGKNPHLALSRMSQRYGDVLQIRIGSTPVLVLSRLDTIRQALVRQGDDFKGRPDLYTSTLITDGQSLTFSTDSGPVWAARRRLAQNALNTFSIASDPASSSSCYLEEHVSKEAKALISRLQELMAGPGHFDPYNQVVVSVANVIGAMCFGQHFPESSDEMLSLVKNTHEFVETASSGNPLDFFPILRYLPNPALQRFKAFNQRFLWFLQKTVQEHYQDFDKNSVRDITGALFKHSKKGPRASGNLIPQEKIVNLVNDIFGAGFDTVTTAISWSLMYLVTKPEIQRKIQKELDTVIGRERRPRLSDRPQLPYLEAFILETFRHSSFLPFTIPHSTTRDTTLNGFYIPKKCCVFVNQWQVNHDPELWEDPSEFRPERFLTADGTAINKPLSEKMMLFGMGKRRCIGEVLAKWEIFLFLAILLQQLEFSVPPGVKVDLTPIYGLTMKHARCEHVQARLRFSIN

[10] = Drug absorption in rat at […], po; type: ADME, organism-based; settings: in vivo, read-out: Fabs
Cytochrome P450 3A4 = Cytochrome P450 3A4 (Homo sapiens, UniProt P08684); test: Inhibition of CYP3A4 (unknown origin) up to 25 uM; type: ADME
[11] = Oral bioavailability in rat at […]; type: ADME, organism-based; settings: in vivo
Cytochrome P450 2D6 = Cytochrome P450 2D6 (Homo sapiens, UniProt P10635); test: Inhibition of CYP2D6 (unknown origin) up to 25 uM; type: ADME
[12] = Terminal Phase volume of distribution […] in rat at […], po or 0.06 mg/kg, iv; type: ADME, organism-based; settings: in vivo, read-out: Vbeta
[13] = Protein binding in rat plasma assessed as unbound fraction; type: ADME, cell-free
in vitro [14] = settings: rat, hepatocytes
Description: Apparent intrinsic clearance in rat hepatocytes

Cytochrome P450 2C9 = Cytochrome P450 2C9 (Homo sapiens, UniProt P11712); test: Inhibition of CYP2C9 (unknown origin) up to 25 uM; type: ADME
[15] = molecular target: Non-receptor tyrosine-protein kinase TYK2 (Homo sapiens, UniProt P29597)
Cytochrome P450 2C19 = Cytochrome P450 2C19 (Homo sapiens, UniProt P33261); test: Inhibition of CYP2C19 (unknown origin) up to 25 uM; type: ADME
[16] = Half life in rat at […], po or 0.06 mg/kg, iv; type: ADME, organism-based; settings: in vivo
in vitro [17] = settings: rat, liver microsomes
Description: Apparent intrinsic clearance in rat liver microsomes

[18] = molecular target: Voltage-gated inwardly rectifying potassium channel KCNH2 (Homo sapiens, UniProt Q12809); test: Binding affinity to human ERG at 30 uM
[19] = Apparent permeability in human Caco2 cells; type: ADME, cell-based; settings: Caco-2
[20] = molecular target: Fibroblast growth factor receptor 1 (Homo sapiens) (UniProt P11362); test: Inhibition of human FGFR1 cytoplasmic domain (398 to 822(end) residues) at 1 mM ATP relative to control
Sequence of Fibroblast growth factor receptor 1 (Homo sapiens) (P11362 22-822 limits assumed): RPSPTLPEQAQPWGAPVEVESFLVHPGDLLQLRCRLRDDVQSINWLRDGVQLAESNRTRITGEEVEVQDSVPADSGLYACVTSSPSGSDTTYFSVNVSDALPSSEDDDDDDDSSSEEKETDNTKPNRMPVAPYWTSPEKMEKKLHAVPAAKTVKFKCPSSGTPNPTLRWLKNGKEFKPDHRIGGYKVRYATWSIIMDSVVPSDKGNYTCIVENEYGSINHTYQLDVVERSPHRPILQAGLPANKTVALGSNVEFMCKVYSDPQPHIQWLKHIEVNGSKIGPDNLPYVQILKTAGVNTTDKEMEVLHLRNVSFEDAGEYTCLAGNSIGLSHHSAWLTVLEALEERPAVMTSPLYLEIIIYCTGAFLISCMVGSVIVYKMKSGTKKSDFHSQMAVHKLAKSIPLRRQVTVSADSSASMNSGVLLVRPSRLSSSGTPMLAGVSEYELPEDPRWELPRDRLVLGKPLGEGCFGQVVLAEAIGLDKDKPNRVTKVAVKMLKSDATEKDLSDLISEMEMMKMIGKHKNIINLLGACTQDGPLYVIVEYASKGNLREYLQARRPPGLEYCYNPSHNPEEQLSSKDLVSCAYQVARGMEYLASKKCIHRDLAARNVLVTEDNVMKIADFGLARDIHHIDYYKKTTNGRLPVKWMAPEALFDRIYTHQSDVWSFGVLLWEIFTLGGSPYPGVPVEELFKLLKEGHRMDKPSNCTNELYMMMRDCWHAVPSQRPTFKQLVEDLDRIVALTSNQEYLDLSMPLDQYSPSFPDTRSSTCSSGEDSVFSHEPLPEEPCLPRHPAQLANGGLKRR

T2 sequence (P23458 whole entry): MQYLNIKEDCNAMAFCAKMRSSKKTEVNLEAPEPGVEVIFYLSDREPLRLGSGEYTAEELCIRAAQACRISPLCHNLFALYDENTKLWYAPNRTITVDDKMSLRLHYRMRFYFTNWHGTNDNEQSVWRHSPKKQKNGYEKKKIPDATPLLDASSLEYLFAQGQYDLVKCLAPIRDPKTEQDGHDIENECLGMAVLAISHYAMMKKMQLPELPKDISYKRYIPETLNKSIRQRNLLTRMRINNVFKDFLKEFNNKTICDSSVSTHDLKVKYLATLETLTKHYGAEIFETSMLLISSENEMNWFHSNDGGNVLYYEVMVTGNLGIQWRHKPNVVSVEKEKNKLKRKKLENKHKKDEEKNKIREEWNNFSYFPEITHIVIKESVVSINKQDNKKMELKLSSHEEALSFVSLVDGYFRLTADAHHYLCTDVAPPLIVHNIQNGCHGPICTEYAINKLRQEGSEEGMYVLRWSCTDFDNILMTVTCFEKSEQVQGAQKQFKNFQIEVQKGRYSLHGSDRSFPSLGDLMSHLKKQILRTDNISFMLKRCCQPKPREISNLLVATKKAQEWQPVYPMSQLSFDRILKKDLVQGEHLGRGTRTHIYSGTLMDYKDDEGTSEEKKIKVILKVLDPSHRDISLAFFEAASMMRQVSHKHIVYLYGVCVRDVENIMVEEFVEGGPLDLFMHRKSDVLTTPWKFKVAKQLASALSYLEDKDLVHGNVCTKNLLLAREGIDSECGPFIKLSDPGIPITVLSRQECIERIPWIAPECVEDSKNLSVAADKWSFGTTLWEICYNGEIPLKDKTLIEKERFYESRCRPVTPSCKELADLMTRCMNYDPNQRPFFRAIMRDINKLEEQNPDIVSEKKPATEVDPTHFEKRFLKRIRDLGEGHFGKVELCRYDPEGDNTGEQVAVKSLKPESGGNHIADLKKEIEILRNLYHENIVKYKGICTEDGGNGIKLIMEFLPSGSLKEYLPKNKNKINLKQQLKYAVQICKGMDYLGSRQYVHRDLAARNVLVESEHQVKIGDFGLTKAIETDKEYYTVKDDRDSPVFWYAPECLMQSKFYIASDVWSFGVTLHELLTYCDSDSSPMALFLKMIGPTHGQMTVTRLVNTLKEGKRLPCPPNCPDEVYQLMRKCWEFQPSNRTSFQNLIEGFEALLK
T1 sequence (O60674 whole entry): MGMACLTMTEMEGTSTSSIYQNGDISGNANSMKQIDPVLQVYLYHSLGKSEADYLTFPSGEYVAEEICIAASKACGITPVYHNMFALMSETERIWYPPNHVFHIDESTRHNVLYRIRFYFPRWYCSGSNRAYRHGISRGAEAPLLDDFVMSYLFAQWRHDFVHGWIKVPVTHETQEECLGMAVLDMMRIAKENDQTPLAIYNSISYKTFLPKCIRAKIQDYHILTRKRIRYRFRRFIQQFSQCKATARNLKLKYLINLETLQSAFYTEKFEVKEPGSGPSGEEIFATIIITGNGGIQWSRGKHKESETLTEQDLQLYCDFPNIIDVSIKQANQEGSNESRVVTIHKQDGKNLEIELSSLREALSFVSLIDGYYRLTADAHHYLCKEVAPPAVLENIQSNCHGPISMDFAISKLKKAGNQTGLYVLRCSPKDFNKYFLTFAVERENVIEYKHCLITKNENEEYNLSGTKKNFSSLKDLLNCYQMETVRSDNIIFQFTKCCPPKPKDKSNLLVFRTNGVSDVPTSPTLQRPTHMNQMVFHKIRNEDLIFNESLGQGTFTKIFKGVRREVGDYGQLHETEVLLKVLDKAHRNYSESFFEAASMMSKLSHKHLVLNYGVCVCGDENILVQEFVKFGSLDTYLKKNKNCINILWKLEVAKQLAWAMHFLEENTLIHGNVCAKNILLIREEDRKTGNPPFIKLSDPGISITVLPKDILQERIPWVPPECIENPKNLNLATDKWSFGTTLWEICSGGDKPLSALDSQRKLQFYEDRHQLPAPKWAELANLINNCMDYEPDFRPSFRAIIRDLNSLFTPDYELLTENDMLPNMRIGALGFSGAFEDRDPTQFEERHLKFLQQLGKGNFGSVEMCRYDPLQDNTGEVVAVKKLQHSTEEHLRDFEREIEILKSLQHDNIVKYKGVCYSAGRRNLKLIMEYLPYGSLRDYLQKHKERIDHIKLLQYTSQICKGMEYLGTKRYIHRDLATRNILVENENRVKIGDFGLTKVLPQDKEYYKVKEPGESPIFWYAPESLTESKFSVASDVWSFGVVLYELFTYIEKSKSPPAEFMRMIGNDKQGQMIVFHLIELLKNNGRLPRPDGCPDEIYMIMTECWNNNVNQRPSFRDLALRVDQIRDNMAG
Sequence of Non-receptor tyrosine-protein kinase TYK2 (P29597 whole entry): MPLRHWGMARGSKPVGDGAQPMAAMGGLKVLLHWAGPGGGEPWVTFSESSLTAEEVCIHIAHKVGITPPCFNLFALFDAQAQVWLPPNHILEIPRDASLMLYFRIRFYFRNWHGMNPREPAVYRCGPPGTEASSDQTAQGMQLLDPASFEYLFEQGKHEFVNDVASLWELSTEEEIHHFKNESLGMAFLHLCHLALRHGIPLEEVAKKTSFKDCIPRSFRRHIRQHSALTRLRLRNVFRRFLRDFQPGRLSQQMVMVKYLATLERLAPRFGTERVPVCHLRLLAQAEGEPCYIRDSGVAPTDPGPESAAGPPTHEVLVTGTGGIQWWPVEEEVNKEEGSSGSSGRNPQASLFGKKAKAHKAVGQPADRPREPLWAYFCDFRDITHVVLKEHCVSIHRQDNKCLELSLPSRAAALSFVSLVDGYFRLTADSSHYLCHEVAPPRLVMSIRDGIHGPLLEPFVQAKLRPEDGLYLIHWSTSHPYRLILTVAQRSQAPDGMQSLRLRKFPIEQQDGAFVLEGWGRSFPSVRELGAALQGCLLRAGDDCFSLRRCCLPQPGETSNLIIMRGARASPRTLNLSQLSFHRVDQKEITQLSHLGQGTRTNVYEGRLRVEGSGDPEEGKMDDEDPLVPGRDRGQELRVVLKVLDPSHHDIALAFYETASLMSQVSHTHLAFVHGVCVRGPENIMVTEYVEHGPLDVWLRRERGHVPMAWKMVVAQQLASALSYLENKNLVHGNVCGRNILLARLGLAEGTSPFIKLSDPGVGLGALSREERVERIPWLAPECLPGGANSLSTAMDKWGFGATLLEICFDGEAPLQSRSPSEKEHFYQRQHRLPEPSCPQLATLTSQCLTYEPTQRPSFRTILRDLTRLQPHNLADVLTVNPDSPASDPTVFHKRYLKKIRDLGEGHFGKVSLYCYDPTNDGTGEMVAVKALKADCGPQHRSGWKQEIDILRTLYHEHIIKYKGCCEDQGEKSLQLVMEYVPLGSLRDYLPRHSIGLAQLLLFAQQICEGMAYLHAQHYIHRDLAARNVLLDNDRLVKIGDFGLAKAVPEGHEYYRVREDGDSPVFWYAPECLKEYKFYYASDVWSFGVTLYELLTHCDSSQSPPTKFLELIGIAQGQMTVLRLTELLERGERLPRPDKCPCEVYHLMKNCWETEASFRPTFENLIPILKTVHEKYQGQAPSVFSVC
Sequence of Cytochrome P450 2D6 (P10635 whole entry): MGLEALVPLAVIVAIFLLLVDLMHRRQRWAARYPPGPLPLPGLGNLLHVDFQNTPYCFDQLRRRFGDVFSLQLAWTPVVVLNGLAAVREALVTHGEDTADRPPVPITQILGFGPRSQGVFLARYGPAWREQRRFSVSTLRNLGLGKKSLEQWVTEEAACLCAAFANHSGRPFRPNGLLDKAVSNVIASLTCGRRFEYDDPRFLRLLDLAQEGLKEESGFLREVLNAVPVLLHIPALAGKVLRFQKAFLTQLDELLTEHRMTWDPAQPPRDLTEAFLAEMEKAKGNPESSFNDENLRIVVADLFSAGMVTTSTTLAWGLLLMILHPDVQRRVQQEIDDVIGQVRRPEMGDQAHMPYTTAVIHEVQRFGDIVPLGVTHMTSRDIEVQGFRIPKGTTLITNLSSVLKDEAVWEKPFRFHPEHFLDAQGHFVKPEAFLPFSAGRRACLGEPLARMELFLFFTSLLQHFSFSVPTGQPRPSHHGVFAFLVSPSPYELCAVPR

| SMILES | IC50 [1] | solubility (physchem [2]) | CLint scaled (in vitro [3]) | IC50 [4] | IC50 [5] | logD (physchem [6]) | IC50 [7] | IC50 [8] | IC50 [15] | further results |
| --- | --- | --- | --- | --- | --- | --- | --- | --- | --- | --- |
| Cc1[nH]nc2[nH]c(=O)cc([C@H]3CC[C@H](CC(=O)N4CCC(C#N)C4)CC3)c12 (mixture of isomers) | > 45 µM | 85 µM (≈ 31.2 µg/mL) | < 8 mL/min/kg | 0.011 µM | 0.15 µM | 0.7 | 0.089 µM | 14 µM | – | – |
| Cc1[nH]nc2[nH]c(=O)cc([C@H]3CC[C@H](CC(=O)N4CC(C#N)C4)CC3)c12 | > 30 µM | 540 µM (≈ 191 µg/mL) | < 8 mL/min/kg | 0.013 µM | 0.097 µM | 0.5 | 0.064 µM | > 30 µM | – | – |
| Cc1[nH]nc2[nH]c(=O)cc([C@H]3C[C@H]4C[C@@H]3C[C@@H]4CC#N)c12 | 2.8 µM | 89 µM (≈ 25.1 µg/mL) | < 8 mL/min/kg | – | 0.088 µM | 1.5 | 0.012 µM | – | 0.02 µM | clearance [9]: 53 mL/min/kg; inhibition (INH) (Cytochrome P450 1A2): Not Active; Fa [10]: 41%; inhibition (INH) (Cytochrome P450 3A4): Not Active; bioavailability [11]: 14%; inhibition (INH) (Cytochrome P450 2D6): Not Active; Vd [12]: 1.2 L/kg; fraction unbound [13]: 0.22; CLint scaled (in vitro [14]): 25 mL/min/kg; inhibition (INH) (Cytochrome P450 2C9): Not Active; inhibition (INH) (Cytochrome P450 2C19): Not Active; half-life [16]: 18 min; CLint scaled (in vitro [17]): < 15 mL/min/kg; Activity [18]: Not Active; Papp [19]: 0.7 ×10⁻⁶ cm/s; inhibition [20]: 32% |
| Cc1[nH]nc2[nH]c(=O)cc([C@H]3C[C@H]4C[C@@H]3C[C@H]4CC#N)c12 | > 43 µM | 290 µM (≈ 81.9 µg/mL) | < 8 mL/min/kg | – | 0.97 µM | 1.6 | 0.36 µM | – | 0.33 µM | – |
| Cc1[nH]nc2[nH]c(=O)cc([C@@H]3C[C@@H]4C[C@H]3C[C@@H]4CC#N)c12 | 24 µM | > 92 µM | < 8 mL/min/kg | – | 0.22 µM | 1.5 | 0.15 µM | – | 0.22 µM | – |
